Reference: patent US20060040861A1, “Method of treating, preventing, and diagnosing prostate cancer” (priority 2004, published 2006)

B1: f-adiponectin: Recombinant human full-length (non-proteolytic) adiponectin, about 30-kDa polypeptide; lot mainly HMW form (protein, UniProt Q15848 1-244, looked up)
chain: MLLLGAVLLLLALPGHDQETTTQGPGVLLPLPKGACTGWMAGIPGHPGHNGAPGRDGRDGTPGEKGEKGDPGLIGPKGDIGETGVPGAEGPRGFPGIQGRKGEPGEGAYVYRSAFSVGLETYVTIPNMPIRFTKIFYNQQNHYDGSTGKFHCNIPGLYYFAYHITVYMKDVKVSLFKKDKAMLFTYDQYQENNVDQASGSVLLHLEVGDQVWLQVYGEGERNGLYADNDNDSTFTGFLLYHDTN
modifications: full-length
notes: Recombinant human full-length (non-proteolytic) adiponectin, about 30-kDa polypeptide; lot mainly HMW form

What was measured:
Type in all cases: cell-based, human
[1] = test system: DU145 cells; assay: MTT assay (cell growth / viability); details: 5 days
Method: DU145 (1×10^3/well), PC-3 (1×10^3/well) and LNCaP-FGC (1.5×10^3/well) cells were seeded in 96-well plates 24 hours prior to serum starvation. Cells were starved of serum for 24 hours and then incubated in the serum-free medium with or without 12.5 μg/ml leptin for 5 days. 3-(4,5-dimethylthiazol-2-yl)-2,5-diphenyl tetrazolium bromide (MTT) was added to each well to a concentration of 0.5 mg/ml. After 3-hour incubation at 37° C., cells were lysed in 50% dimethylformamide and 20% SDS at 37° C. Optical densities (O.D.) at 550 nm and 670 nm were measured by a plate reader, and differential O.D. between 550 nm and 670 nm (O.D. 550 nm minus O.D. 670 nm) were determined. Each experiment was performed in quadruplicate, and the values are reported as mean±SD.
DU145 (0.5-1.0×10^3/well), PC-3 (0.5-1.0×10^3/well), and LNCaP FGC (0.75-1.5×10^3/well) cells were seeded in 96-well plates 24 hours prior to serum starvation. Cells were starved of serum for 24 hours and then incubated in the serum-free medium with or without cytokine(s), DHT and/or doxorubicin at indicated concentrations for 5 days. MTT was added to each well to a concentration of 0.5 mg/ml. After being incubated at 37° C. for 3 hours, cells were lysed in 50% dimethylformamide and 20% SDS at 37° C. Optical densities (OD) at 550 and 670 nm were measured by a plate reader, and differential OD between 550 and 670 nm (OD 550 minus OD 670 nm) were determined. Each experiment was performed in quadruplicate, and the values were reported as mean±S.D.
Sucrose gradients were set up in 2.2-ml centrifuge tubes (Beckman Coulter, Inc., Fullerton, Calif.) by layering 5, 10, 15 and 20% (w/v) sucrose in velocity sedimentation buffer (10 mM HEPES, pH 8; 125 mM NaCl). Gradients were then equilibrated overnight at 4° C. Twenty micrograms of f-adiponectin in 200 μl of velocity sedimentation buffer containing 5 μl of HMW-Native protein marker kit (GE Healthcare, Piscataway, N.J.) set to 0.5 μg/μl albumin was overlayed onto the sucrose gradients and spun in a Beckman TLS-55 rotor at 55,000 rpm for 5 hours at 4° C. Fractions (150 μl each) were sequentially collected from the top to the bottom; aliquots were removed and used immediately in the MTT assay. The remaining material was stored at −80° C. for Western blot analysis with anti-adiponectin antibody and SDS-PAGE with silver staining. For the MTT assay, DU145 cells (0.5×1 03/well) were serum-starved and incubated in triplicate in 60 μl of the serum-free medium plus 30 μl of each fraction. For Western blot analysis, 0.5 μl of each fraction was electrophoresed on a 10% SDS-polyacrylamide gel and electrotransferred to a polyvinylidene difluoride membrane. The membrane was washed, blocked, and hybridized with the anti-adiponectin antibody. Bands were visualized using a Lumiglo reagent (Cell Signaling Technology, Inc., Beverly, Mass.). For SDS-PAGE, 20 μl of each fraction was electrophoresed on a 10% SDS-polyacrylamide gel, followed by silver staining using the Silver Stain kit (Bio-Rad Laboratories, Inc., Hercules, Calif.) to visualize molecular weight markers.

[2] = test system: DU145 cells; assay: [3H] thymidine incorporation assay
Method: (§1) DU145 (1.5×10^5/well), PC-3 (1.0×10^5/well) and LNCaP-FGC (2.0×10^5/well) cells were seeded into 24-well plates 24 hours before serum-starvation. Cells were deprived of serum for 48 hours, followed by incubation with leptin at indicated concentrations or 100 ng/ml IL-6 for 20 hours. In some experiments, cells were pretreated with SP600125 prior to cytokine stimulation as described below. Cells in each well were pulsed with 1 μCi of [^3H] thymidine (Amersham Pharmacia Biotech Inc., Piscataway, N.J., USA) during the final 5 hours, washed once with PBS, fixed with cold 5% trichloroacetic acid, solubilized with 0.25 M NaOH, and counted in scintillant. Each experiment was performed in quadruplicate, and the values are reported as mean±SD.
(§2) SP600125 was dissolved in DMSO to make a stock solution. Eighty-percent confluent prostate cancer cells were serum-starved for 24 hours and pretreated with SP600125 at indicated concentrations for 30 minutes, followed by leptin treatment (12.5 μg/ml): 15 minutes for Western blot analysis or 20 hours for thymidine incorporation assays. DMSO-treated cells were employed as controls.

[3] = test system: PC-3 cells; assay: [3H] thymidine incorporation assay
Method: as §1, §2

[4] = test system: STAT3; assay: Electromobility shift assay (EMSA) of STAT3 DNA binding
Method: Seventy-percent confluent cells were deprived of serum for 24 hours, followed by treatment with 1 μg/ml f- or g-adiponectin or 10 μg/ml anisomycin for indicated periods. After being rinsed with cold phosphate-buffered saline, cells were harvested using a scraper and collected by centrifugation at 700×g for 10 minutes at 4° C. The cell pellets were then homogenized in cell lysis buffer (20 mM HEPES, pH 7.9, 300 mM NaCl, 1 mM Na3VO4, 1 μg/ml leupeptin, 5 μg/ml aprotinin, 1 μg/ml pepstatin, and 1 mM phenylmethylsulfonyl fluoride) and rocked gently for 30 minutes at 4° C. The homogenates were centrifuged at 15,000×g for 5 minutes at 4° C., and the supernatants were saved as cell lysates and stored at −80° C. until use.
The EMSA was performed as described previously (Y. Iwamoto, et al., J. Biol. Chem. 273:18198-18204, 1998). Cell lysates containing 10 μg of protein were subjected to the assay with ^32P-end-labeled, double-stranded oligonucleotide M67-SIE (forward: 5′[…]-3′ and reverse: 5′-[…]-3′) as a probe. The supershift assay was carried out to confirm the STAT3-DNA complex using anti-STAT3 antibody.

| Molecule | cell growth (MTT), leptin together with IGF-I ([1]; 12.5 μg/ml leptin and 100 ng/ml IGF-I, absence of androgen) | living cells (MTT) ([1]; 12.5 μg/ml leptin, serum-free) | [3H] thymidine incorporation (cell proliferation), cytokine alone ([2]; DU145, serum-deprived, leptin up to 12.5 μg/ml, IL-6 100 ng/ml or IGF-I 100 ng/ml, 20 hours) | effect on the IGF-I stimulation of cell proliferation ([2]; DU145, 12.5 μg/ml leptin with 100 ng/ml IGF-I, 20 hours) | effect on the IL-6 stimulation of cell proliferation ([2]; DU145, 12.5 μg/ml leptin with 100 ng/ml IL-6, 20 hours) | [3H] thymidine incorporation (cell proliferation), cytokine alone ([3]; PC-3, serum-deprived, leptin up to 12.5 μg/ml, IL-6 100 ng/ml or IGF-I 100 ng/ml, 20 hours) | effect on the IGF-I stimulation of cell proliferation ([3]; PC-3, 12.5 μg/ml leptin with 100 ng/ml IGF-I, 20 hours) | effect on the IL-6 stimulation of cell proliferation ([3]; PC-3, 12.5 μg/ml leptin with 100 ng/ml IL-6, 20 hours) | constitutive STAT3 activation (STAT3 DNA binding activity) ([4]; DU145 and HepG2 cells, 1.0 μg/ml, up to 60 minutes) | STAT3 activation ([4]; the other cell lines (PC-3, LNCaP-FGC, C2C12), data not shown) | effect on the leptin and/or IGF-I stimulation of cell growth (MTT) ([1]; 1 μg/ml f-adiponectin, 12.5 μg/ml leptin and/or 100 ng/ml IGF-I) | effect on the conditioned medium stimulation of cell growth (MTT) ([1]; 1 μg/ml f-adiponectin) | effect on the doxorubicin suppression of cell growth (MTT) ([1]; 1 μg/ml f-adiponectin) | cell growth (MTT) at concentrations up to 1 μg/ml ([1]; serum-free) | concentration at which the inhibitory effect on cell growth saturated ([1]; MTT) |
| --- | --- | --- | --- | --- | --- | --- | --- | --- | --- | --- | --- | --- | --- | --- | --- |
| leptin: Recombinant human leptin purchased from R&D Systems; major adipose cytokine | stimulated cell growth synergistically | increased living cells | stimulated thymidine incorporation remarkably in a dose-dependent fashion | drastic, synergistic effects | additive effects | stimulated thymidine incorporation remarkably in a dose-dependent fashion | drastic, synergistic effects | additive effects |  |  |  |  |  |  |  |
| B1 |  |  |  |  |  |  |  |  | inhibited constitutive STAT3 activation drastically | Neither f- nor g-adiponectin influenced STAT3 activation | remarkably suppressed | drastically suppressed | enhanced the doxorubicin suppression | inhibited cell growth in a dose-dependent manner | 1 µg/mL |
